Results on twelve compounds are retold here after US6204220A, “Substituted 2-oxo-3-alkynoic acids and methods of use thereof” (Rutgers, The State University of New Jersey, priority 1999, dated 2001).

“Also recorded” adds a separate entry of the source. Like-named read-outs stand apart in the source and are kept apart here.

Test [1] concerns the target T1, resolved E1 (Escherichia coli, UniProt P0AFG8).
T1 construct: made in house; host or cells: resolved from PDHc expressed in E. coli JRG1342
The conditions noted are these: read-out: Ki, reversible inhibition of resolved E1; dichorophenolindophenol assay, Lowe & Perham 1984; cited from earlier work.

Test [2] has as its target T1, resolved E1. Kind of test: Inactivation of resolved E1 component (activity after reconstitution with E2-E3 subcomplex). It counts as biochemical, E. coli. The conditions noted are these: for effect on catalytic activity of resolved E1 (in words): data not shown. The procedure:
Resolution of the E1 component from PDHc. […] PDHc was dialyzed against 50 mM Tris buffer, pH 9.0, containing 0.1 mM benzamidine.HCl, 0.15 M NaCl, 0.1 mM PMSF for 2 h, before applying to a column equilibrated and eluted with the same buffer.
(§1) Activity and related measurements on PDHc. The overall enzymatic reaction of the PDH complex was assayed using a Varian DMS 300 spectrophotometer or the Cobas Bio (Roche Diagnostics, Somerville, N.J.) automated centrifugal analyzer, monitoring the pyruvate-dependent reduction of NAD^+ at 340 nm. The reaction medium contained in 1 mL (DMS 300) or 0.25 mL (Cobas-Bio) test volume: 0.1 M Tris-HCl, pH 8.0; 1 mM MgCl2; 2 mM sodium pyruvate; 2.5 mM NAD^+; 0.052-0.2 mM coenzyme A; 0.2 mM ThDP; and 2.6 mM DTT at 27° C. The reaction was initiated either by adding enzyme to a mixture of all other components, or by adding CoA.
(§2) One unit of activity is defined as the amount of NADH produced (μmol) per min per mg protein. The activity of resolved E1 was measured after reconstitution with excess E2-E3 subcomplex using the NADH assay for PDHc activity.
(§3) Inactivation of 1-lip and 3-lip PDH complexes and resolved E1 component by 2-oxo-3-alkynoic acids. Intact 1-lip or 3-lip PDH complexes (0.050-0.1 mg) or resolved E1 component (0.05-0.09 mg) were incubated in the dark with 5 mM MgCl2, […] of 2-oxo-3-alkynoic acids in 20 mM KH2 PO4 buffer, pH 7.5 at room temperature in a total volume 0.5 mL. The initial activity (100%) was assayed prior to the addition of 2-oxo-3-alkynoic acids. Samples (50 μL) were withdrawn periodically and diluted into 1 mL of assay solution, containing all components necessary for assay of the overall activity. The activity of untreated enzyme was stable during the time of inactivation.

Test [3] concerns the target T1, resolved E1. The conditions noted are these: read-out: Ki E1; calculated from data of Flournoy and Frey (1989); cited from earlier work.
The target of a further test is PDHc from E. coli (Escherichia coli, UniProt P0AFG8). The conditions noted are these: cited from earlier work.
Test [4] concerns the target T2, POX from Lactobacillus plantarum (Lactiplantibacillus plantarum, UniProt P37063).
T2 sequence (P37063 1-603): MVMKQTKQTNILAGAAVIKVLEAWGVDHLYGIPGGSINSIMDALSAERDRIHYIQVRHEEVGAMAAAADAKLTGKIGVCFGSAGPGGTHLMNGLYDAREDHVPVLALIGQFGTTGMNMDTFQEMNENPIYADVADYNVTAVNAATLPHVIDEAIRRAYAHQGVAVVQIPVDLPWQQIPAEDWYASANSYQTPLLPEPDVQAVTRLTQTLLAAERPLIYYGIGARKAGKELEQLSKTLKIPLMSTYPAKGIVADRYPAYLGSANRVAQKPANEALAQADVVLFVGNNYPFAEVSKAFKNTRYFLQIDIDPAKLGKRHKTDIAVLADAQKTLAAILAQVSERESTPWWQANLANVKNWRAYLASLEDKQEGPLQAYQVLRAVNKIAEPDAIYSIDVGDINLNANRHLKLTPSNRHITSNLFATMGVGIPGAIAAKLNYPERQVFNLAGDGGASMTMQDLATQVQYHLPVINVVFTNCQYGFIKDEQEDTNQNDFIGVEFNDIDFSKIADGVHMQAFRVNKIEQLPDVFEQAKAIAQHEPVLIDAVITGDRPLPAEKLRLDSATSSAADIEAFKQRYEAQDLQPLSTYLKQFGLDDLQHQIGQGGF
The settings on record: cited from earlier work.

Test [5] deals with T3, Pyruvate oxidase from Lactobacillus plantarum (Lactiplantibacillus plantarum, UniProt P37063).
T3 construct: purchased Boehringer Mannheim (a gift, not bought)
T3 sequence (P37063 1-603): T2 sequence (P37063 1-603)
Kind of test: Inactivation of pyruvate oxidase (POX). Type of test: biochemical. The conditions noted are these: for kinact/KI: read-out: kc/Ki,c (converted). How it is done: Pyruvate oxidase from Lactobacillus plantarum was a gift from Boehringer Mannheim and was assayed according to the manufacturer's instructions at 25° C. by measuring the rate of 4-quinonimine production from H2 O2, 3,5-dichlorophenolsulfonic acid and 4-aminoantipyrine in the presence of horseradish peroxidase, at 546 nm, using a Cobas-Bio (Roche Diagnostics, Somerville, N.J.) automated centrifugal analyzer. The assay reaction mixture (total vol. 0.25 mL) contained: 40 mM sodium pyruvate; 50 mM potassium phosphate buffer, pH 6.5 with 10% (v/v) glycerol; 6.8 mM 3,5-dichlorophenolsulfonic acid; 0.03% of 4-aminoantipyrine; and 5u/mL of horseradish peroxidase. The reaction was initiated by adding POX.

For test [6], the target named is T4, Pyruvate decarboxylase from Saccharomyces cerevisiae (Saccharomyces cerevisiae, UniProt P06169).
T4 construct: made in house; host or cells: E. coli
T4 sequence (P06169 2-563 limits assumed): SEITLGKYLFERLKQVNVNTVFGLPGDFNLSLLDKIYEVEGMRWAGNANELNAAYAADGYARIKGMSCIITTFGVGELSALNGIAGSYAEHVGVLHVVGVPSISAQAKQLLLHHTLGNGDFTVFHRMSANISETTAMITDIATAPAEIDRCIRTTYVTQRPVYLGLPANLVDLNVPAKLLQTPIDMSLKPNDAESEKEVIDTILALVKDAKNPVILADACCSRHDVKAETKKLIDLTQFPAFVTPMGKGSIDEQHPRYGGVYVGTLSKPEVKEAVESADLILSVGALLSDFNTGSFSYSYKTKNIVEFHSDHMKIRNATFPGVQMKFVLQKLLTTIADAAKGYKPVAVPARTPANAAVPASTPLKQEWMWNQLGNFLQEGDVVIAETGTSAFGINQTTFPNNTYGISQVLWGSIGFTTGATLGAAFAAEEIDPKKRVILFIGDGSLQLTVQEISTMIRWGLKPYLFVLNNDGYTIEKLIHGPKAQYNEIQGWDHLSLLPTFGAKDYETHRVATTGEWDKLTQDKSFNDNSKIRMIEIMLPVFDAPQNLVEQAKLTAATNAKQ
Kind of test: Inactivation of pyruvate decarboxylase (PDC). It counts as biochemical. The procedure: Pyruvate decarboxylase from Saccharomyces cerevisiae was overexpressed in E. coli (Baburina et al., 1994), then purified according to Farrenkopf & Jordan (1992). It was assayed spectrophotometrically by coupling to alcohol dehydrogenase (Holzer et al., 1960).

A further test addresses PDHc (Escherichia coli, UniProt P0AFG8). Kind of test: Inactivation of 1-lip and 3-lip PDH complexes by 2-oxo-3-alkynoic acids (overall NADH assay). Type of test: biochemical, E. coli. The settings on record: for kapp, slower phase of inactivation: PDHc. Set-up: made in house; host or cells: E. coli JRG1342 (PDHc null) with Ptac plasmid pGS501 (1-lip) or pGS523 (3-lip).
From the text: Bacterial strains and plasmids for PDHc. Derivatives of the PDHc null strain, E. coli JRG1342 contained Ptac expression plasmids encoding PDHc with E2 chains bearing three lipoyl domains (3-lip PDHc; pGS523, the wild type parental complex), or a single lipoyl domain in each E2 subunit (1-lip PDHc; pGS501), and variant 1-lip PDH complexes with mutations in the E1 gene leading to C259S (pGS457) and C259N (pGS596) substitutions (Machado et al., 1992; Machado, 1993).
Purification of PDHc. Cultures for purification of 1-lip and 3-lip PDH complexes were grown at 37° C. in LB medium containing glucose (0.2%) and ampicillin (50 μg/mL). The PDH complexes were induced by adding IPTG to 60 μM as described by Russell et al. (1992). Cells were disrupted by ultrasonic treatment after preincubation with lysozyme (0.6 mg/mL final concentration) for 15 min. The PDHc was sedimented by ultracentrifugation (100,000×g for 3 h) and further purified by chromatography on a
Sephacryl S-400 HR column. Fractions containing PDHc were pooled and treated with ammonium sulfate to 70% saturation. The enzyme was dissolved in buffer A (20 mM potassium phosphate, pH 7.8, 2 mM Na2 EDTA, 1 mM PMSF, and 1 mM benzamidine.HCl) then dialyzed against the same buffer. The PDH complexes were stored in buffer A at -20° C.
as §1, §2, §3

Test [7] deals with T5, PDC from Saccharomyces cerevisiae (Saccharomyces cerevisiae, UniProt P06169).
T5 sequence (P06169 2-563 limits assumed): T4 sequence (P06169 2-563 limits assumed)
The conditions noted are these: cited from earlier work; for inhibition of brewer's yeast PDC (in words): Chiu & Jordan, 1994.

The target of the next test is T6, E1 (Escherichia coli, UniProt P0AFG8).
T6 construct: made in house; host or cells: resolved from PDHc expressed in E. coli JRG1342
Kind of test: Fluorescence measurements on binding to E1. Set-up: species or system E. coli. The settings on record: 2 mM. How it is done: Fluorescence measurements on the binding of 2-oxo-3-butynoic acid to E1. The fluorescence spectrum of apo-E1 (enzyme having no activity in the absence of ThDP) was measured using the SLM8100 spectrofluorimeter at 25° C. The excitation wavelength was 295 nm and the emission spectrum, presumably due to tryptophan, was recorded in the 300-450 nm range in a 1 mL or 3 mL quartz cuvette. The concentration of apo-E1 was 0.05-0.175 mg/mL in 20 mM KH2 PO4 buffer, pH 7.5. The excitation and emission monochromator slit widths were 4 nm. The V.3.0 software and KaleidaGraph computer program were used for data processing. The emission maximum for tryptophan (λ=335 nm) was determined by fitting the points from the peak using the KaleidaGraph computer program.

In the case of `O=C(O)C(=O)CBr` [bromopyruvate], the Ki at resolved E1 [1] is 90 ± 15 µM.
Take `O=C(O)c1cc[c]([Hg][Cl])cc1` [p-chloromercuribenzoate, reference compound]: at resolved E1 [2], the “molar excess required to inactivate E1” value worked out at 300 fold molar excess.
As to `O=C(O)c1cc(SSc2ccc([N+](=O)[O-])c(C(=O)O)c2)ccc1[N+](=O)[O-]` [5,5'-dithiobis-(2-nitrobenzoic acid), reference compound], the “effect on catalytic activity of resolved E1 (in words)” value on resolved E1 [2] is reported as “not significantly affected”.
Regarding `O=C(O)C(=O)CF` [fluoropyruvate], the Ki was 28 µM at resolved E1 [3]; 33 µM at PDHc from E. coli (calculated from data of Flournoy and Frey (1989), read-out: Ki PDHc).
In the case of `CCC(=O)C(=O)O` [2-oxobutanoic acid], the “substrate-like activity with POX” value in [4] (manufacturer's information) was “fails to show substrate-like activity”. On PDHc from E. coli (Bisswanger (1981), read-out: Km (substrate of E. coli PDHc)), the Km (in general, the substrate concentration at which the rate is half of its maximum) was 3 mM.
Turning to `CC#CC(=O)C(=O)O` [2-oxo-3-pentynoic acid, 2-Oxo-3-pentynoic acid], the “inhibition / inactivation of POX (in words)” value in test [5] is “inhibit”. Besides, the saturation by inhibitor entry in test [5] (POX) is given as “no”. The kinact/KI in [5] (POX, from linear portion at high inhibitor concentrations (d)) was 0.207 M⁻¹ s⁻¹; in test [5] (POX, from linear portion at low inhibitor concentrations (c)), 0.0473 M⁻¹ s⁻¹; on PDHc (pH 7.5, read-out: ki/Ki PDHc) it was 25.3 M⁻¹ s⁻¹. In test [6], the “inhibition / inactivation of PDC (in words)” value is “inhibit”. The compound further displayed a Ki on PDHc of 276 µM. The “partial protection by pyruvate on slow phase of inactivation” value on PDHc (1-lip PDHc, 3 mM inhibitor, 5 mM pyruvate, 1 mM ThDP) is on record as 21%. Further, the “kapp, slower phase of inactivation” value was found to be 0.048 min⁻¹ on PDHc (3 mM inhibitor) and 0.022 min⁻¹ at PDHc (4 mM inhibitor). In addition, the activity at 3000 µM at PDHc (read-out: residual activity after 26 min of inactivation, 1-lip PDHc, 3 mM inhibitor, absence of pyruvate) is 14%; on PDHc (read-out: residual activity after 26 min of inactivation, 1-lip PDHc, 3 mM inhibitor, presence of 5 mM pyruvate), 35%.
As to `O=C(O)C(=O)/C=C/c1ccc(Cl)cc1` [E-4(4-chlorophenyl)-2-oxo-3-butenoic acid, reference compound], the Ki in test [6] (PDC, read-out: Ki) worked out at 700 µM. The kinact in test [6] (PDC, read-out: first order rate constant of inactivation (ki) (converted)) is 0.00633 s⁻¹. For the same compound, the kinact/KI in test [6] (PDC, read-out: ki/Ki (converted)) is 9 M⁻¹ s⁻¹.
On to `CC(=O)[PH](=O)O` [acetylphosphinate], for which the Ki is 470 µM in [7] (PDC from Saccharomyces cerevisiae), 50 µM in [4] (POX from Lactobacillus plantarum) and 0.15 µM at PDHc from E. coli (PDHc from E. coli).
For `O=C(O)C(=O)C=Cc1ccccc1` [2-oxo-4-phenyl-3-butenoic acid, reference compound], the “inhibition of brewer's yeast PDC (in words)” value in test [7] is “inhibited”. In addition, at PDHc, the “inhibition / inactivation of PDHc (in words)” value was “no effect”.
`CC(=O)C(=O)O` [pyruvate, reference compound]: the “decrease of fluorescence intensity of E1” value on E1 (absence of ThDP) is recorded as 21%; at E1 (with ThDP 0.2 mM and MgCl2 1 mM), “about 15%”.
For the compound `CSS(C)(=O)=O` [methylmethanethiolsulfonate, reference compound], the “effect on catalytic activity of resolved E1 (in words)” value at resolved E1 [2] is “not significantly affected”.
For the compound `O=C(O)C(=O)C#Cc1ccccc1` [2-oxo-4-phenyl-3-butynoic acid, reference compound], the “inhibition of brewer's yeast PDC (in words)” value in test [7] is given as “inhibited”. Also, the “inhibition / inactivation of PDHc (in words)” value at PDHc is “no effect; also recorded: no inhibition”.
